The nature of this data set: Isothermal compression of Langmuir monolayers of dendrons at the air/water interface. Format: physicochemical. Conditions: 25±0.5° C. The procedure: The evaluation of anchoring capability of the dendrons at interfacial film of microbubbles was evaluated by investigating the isothermal compression of Langmuir monolayers formed by these molecules at the air/water interface. Langmuir monolayers constitute a bidimensional experimental model of the interfacial film of the nanoemulsions. In the above-mentioned experiments, the surface pressure (π) versus molecular area (A) isotherms were recorded using a Langmuir minitrough (KSV NIMA, Finland) equipped with two movable barriers (initial area: 365×75 mm^2, compression speed: 10 cm^2 min^−1, which corresponded to a reduction of the total area of ˜3.6% min^−1). π was measured using the Wilhelmy plate (paper) method. The trough was maintained at 25±0.5° C. Solutions of oligo(ethylene oxide) dendrons (1 mmol L^−1) in chloroform were spread on the surface of water (320 mL). Subsequently, 15 min was allowed for chloroform to evaporate and the film to equilibrate before compression was initiated. All the experiments were performed at least three times. Since our Langmuir trough only allowed for a surface area compression of about 10, isotherms were recorded in three separate experiments.

In the case of `CCOP(=O)(Cc1cc(CP(=O)(OCC)OCC)cc(OCCNC(=O)c2cc(OCCOCCOCCOCCOC)c(OCCOCCOCCOCCOC)c(OCCOCCOCCOCCOC)c2)c1)OCC` [DM], the “collapse pressure / surface pressure of the Langmuir monolayer” value is about 10 mN m^−1.

The values above are taken from patent US20250375539A1, “COMPOSITIONS OF DISPERSED SYSTEMS FOR BIOMEDICAL APPLICATIONS, PROCESS FOR THEIR PREPARATION AND USES THEREOF” (SUPERBRANCHE, priority 2022, published 2025).
